pIC50: −log10 of the molar value. Where two headings read alike, the source gives them in different places.
Tests used:
[1] = system: Caco-2 cells; experiment: Proliferation assay Caco-2; format: cell-based, human; conditions: 4 days, crystal violet, read-out: Inhibition of Caco-2 cell proliferation IC50
Protocol: Cultivated tumour cells (HeLa, human cervical tumour cells, ATCC CCL-2; NCI-H460, human non-small cell lung carcinoma cells, ATCC HTB-177; A2780, human ovarian carcinoma cells, ECACC #93112519; DU 145, hormone-independent human prostate carcinoma cells, ATCC HTB-81; HeLa-MaTu-ADR, multidrug-resistant human cervical carcinoma cells, EPO-GmbH Berlin; Caco-2, human colorectal carcinoma cells, ATCC HTB-37; B16F10, mouse melanoma cells, ATCC CRL-6475) were plated at a density of 5,000 cells/well (DU145, HeLa-MaTu-ADR), 3,000 cells/well (NCI-H460, HeLa), 2,500 cells/well (A2780), 1,500 cells/well (Caco-2), or 1,000 cells/well (B16F10) in a 96-well multititer plate in 200 μL of their respective growth medium supplemented 10% fetal calf serum. After 24 hours, the cells of one plate (zero-point plate) were stained with crystal violet (see below), while the medium of the other plates was replaced by fresh culture medium (200 μl), to which the test substances were added in various concentrations (0 μM, as well as in the range of 0.001-10 μM). The cells were incubated for 4 days in the presence of test substances. Cell proliferation was determined by staining the cells with crystal violet: the cells were fixed by adding 20 μl/measuring point of an 11% glutaric aldehyde solution for 15 minutes at room temperature. After three washing cycles of the fixed cells with water, the plates were dried at room temperature. The cells were stained by adding 100 μl/measuring point of a 0.1% crystal violet solution (pH 3.0). After three washing cycles of the stained cells with water, the plates were dried at room temperature. The dye was dissolved by adding 100 μl/measuring point of a 10% acetic acid solution. The extinction was determined by photometry at a wavelength of 595 nm. The change of cell number, in percent, was calculated by normalization of the measured values to the extinction values of the zero-point plate (=0%) and the extinction of the untreated (0 μm) cells (=100%). The IC50 values (inhibitory concentration at 50% of maximal effect) were determined by means of a 4 parameter fit. Non-adherent MOLM-13 human acute myeloid leukemia cells (DSMZ ACC 554) were seeded at a density of 5,000 cells/well in a 96-well multititer plate in 100 μL of growth medium supplemented 10% fetal calf serum. After 24 hours, cell viability of one plate (zero-point plate) was determined with the Cell Titre-Glo Luminescent Cell Viability Assay (Promega), while 50 μL of test compound containing medium was added to the wells of the other plates (final concentrations in the range of 0.001-1 μM and DMSO controls). Cell viability was assessed after 72-hour exposure with the Cell Titre-Glo Luminescent Cell Viability Assay (Promega). IC50 values (inhibitory concentration at 50% of maximal effect) were determined by means of a 4 parameter fit on measurement data which were normalized to vehicle (DMSO) treated cells (=100%) and measurement readings taken immediately before compound exposure (=0%).

[2] = target: T1, CDK2/CycE (Homo sapiens, UniProt P24941); experiment: CDK2/CycE high ATP kinase assay (TR-FRET, Method 2b); format: biochemical; conditions: 2 mM ATP
T1 construct: GST; purchased ProQinase GmbH (Freiburg, Germany); host or cells: insect cells (Sf9)
Protocol: 2b. CDK2/CycE High ATP Kinase Assay:
CDK2/CycE-inhibitory activity of compounds of the present invention at 2 mM adenosine-tri-phosphate (ATP) was quantified employing the CDK2/CycE TR-FRET (TR-FRET=Time Resolved Fluorescence Resonance Energy Transfer) assay as described in the following paragraphs.
Recombinant fusion proteins of GST and human CDK2 and of GST and human CycE, expressed in insect cells (Sf9) and purified by Glutathion-Sepharose affinity chromatography, were purchase from ProQinase GmbH (Freiburg, Germany). As substrate for the kinase reaction biotinylated peptide biotin-Ttds-YISPLKSPYKISEG (C-terminus in amid form) was used which can be purchased e.g. from the company JERINI peptide technologies (Berlin, Germany).
For the assay 50 nl of a 100 fold concentrated solution of the test compound in DMSO was pipetted into a black low volume 384 well microtiter plate (Greiner Bio-One, Frickenhausen, Germany), 2 μl of a solution of CDK2/CycE in aqueous assay buffer [50 mM Tris/HCl pH 8.0, 10 mM MgCl2, 1.0 mM dithiothreitol, 0.1 mM sodium ortho-vanadate, 0.01% (v/v) Nonidet-P40 (Sigma)] were added and the mixture was incubated for 15 min at 22° C. to allow pre-binding of the test compounds to the enzyme before the start of the kinase reaction. […] The concentration of CDK2/CycE was adjusted depending of the activity of the enzyme lot and was chosen appropriate to have the assay in the linear range, typical concentrations were in the range of 15 ng/ml. The reaction was stopped by the addition of 5 μl of a solution of TR-FRET detection reagents (0.2 μM streptavidine-XL665 [Cisbio Bioassays, Codolet, France] and 1 nM anti-RB(pSer807/pSer811)-antibody from BD Pharmingen [#558389] and 1.2 nM LANCE EU-W1024 labeled anti-mouse IgG antibody [Perkin-Elmer, product no. AD0077, as an alternative a Terbium-cryptate-labeled anti-mouse IgG antibody from Cisbio Bioassays can be used]) in an aqueous EDTA-solution (100 mM EDTA, 0.2% (w/v) bovine serum albumin in 100 mM HEPES pH 7.5).
The resulting mixture was incubated 1 h at 22° C. to allow the formation of complex between the phosphorylated biotinylated peptide and the detection reagents. Subsequently the amount of phosphorylated substrate was evaluated by measurement of the resonance energy transfer from the Eu-chelate to the streptavidine-XL. Therefore, the fluorescence emissions at 620 nm and 665 nm after excitation at 350 nm were measured in a TR-FRET reader, e.g. a Rubystar (BMG Labtechnologies, Offenburg, Germany) or a Viewlux (Perkin-Elmer). The ratio of the emissions at 665 nm and at […] was taken as the measure for the amount of phosphorylated substrate. The data were normalised (enzyme reaction without inhibitor=0% inhibition, all other assay components but no enzyme=100% inhibition).

Row | Compound | pIC50 [2] | pIC50 ([1]; Homo sapiens, Caco-2, 96 h) | pIC50 [1]
1 | CS(=N)(=O)Cc1cc2nc(c1)OCCOc1cc(F)ccc1-c1cc(ncc1F)N2 (racemic) [Example 11, (rac)-14,18-difluoro-7-[(S-methylsulfonimidoyl)methyl]-2,3-dihydro-10H-9,5-(azeno)-11,15-(metheno)-1,4,10,12-benzodioxadiazacycloheptadecine] | 5.67 | 6.80 | –
2 | CS(=O)(Cc1cc2cc(c1)OCCCOc1cc(F)ccc1-c1nc(ncc1F)N2)=NC(=O)C(F)(F)F (racemic) [Example 16, (rac)-N-[{[15,19-difluoro-3,4-dihydro-2H,11H-12,16-(azeno)-10,6-(metheno)-1,5,11,13-benzodioxadiazacyclooctadecin-8-yl]methyl}(methyl)oxido-λ^6-sulfanylidene]-2,2,2-trifluoroacetamide] | 6.17 | 7.82 | –
3 | CSCc1cc2nc(c1)OCCCCOc1cc(F)ccc1-c1cc(ncc1F)N2 [Example 12, 16,20-Difluoro-9-[(methylsulfanyl)methyl]-2,3,4,5-tetrahydro-12H-11,7-(azeno)-13,17-(metheno)-1,6,12,14-benzodioxadiazacyclononadecine] | 6.05 | 7.21 | –
4 | CSCc1cc2nc(c1)OCCOc1cc(F)ccc1-c1cc(ncc1F)N2 [Example 9, 14,18-Difluoro-7-[(methylsulfanyl)methyl]-2,3-dihydro-10H-9,5-(azeno)-11,15-(metheno)-1,4,10,12-benzodioxadiazacycloheptadecine] | < 4.70 | 6.09 | –
5 | ({[15,19-difluoro-3,4-dihydro-2H,11H-10,6-(azeno)-12,16-(metheno)-1,5,11,13-benzodioxadiazacyclooctadecin-8-yl]methyl}sulfonyl)acetic acid [Example 27] | 8.20 | – | 5.68
6 | CSCc1cc2cc(c1)OCCCOc1cc(F)ccc1-c1nc(ncc1F)N2 [Example 2, 15,19-Difluoro-8-[(methylsulfanyl)methyl]-3,4-dihydro-2H,11H-12,16-(azeno)-10,6-(metheno)-1,5,11,13-benzodioxadiazacyclooctadecine] | 6.19 | 7.52 | –

Second part, led by results:

Row | pIC50 [2] | pIC50 ([1]; Homo sapiens, Caco-2, 96 h) | Compound | pIC50 [1]
7 | 7.30 | – | CS(=N)(=O)Cc1cc2nc(c1)OCCCOc1cc(F)ccc1-c1cc(ncc1F)N2 (single isomer, unassigned; enantiomer 2) [Example 7, 15,19-Difluoro-8-[(S-methylsulfonimidoyl)methyl]-3,4-dihydro-2H,11H-10,6-(azeno)-12,16-(metheno)-1,5,11,13-benzodioxadiazacyclooctadecine; Enantiomer 2] | 8.22
8 | 6.63 | 7.77 | CS(=N)(=O)Cc1cc2cc(c1)OCCCOc1cc(F)ccc1-c1nc(ncc1F)N2 (racemic) [Example 15, (rac)-15,19-difluoro-8-[(S-methylsulfonimidoyl)methyl]-3,4-dihydro-2H,11H-12,16-(azeno)-10,6-(metheno)-1,5,11,13-benzodioxadiazacyclooctadecine] | –
9 | 7.74 | 7.33 | CS(=O)(Cc1cc2nc(c1)OCCCOc1cc(F)ccc1-c1cc(ncc1F)N2)=NC(=O)OCCN (racemic) [Example 25, (rac)-2-aminoethyl [{[15,19-difluoro-3,4-dihydro-2H,11H-10,6-(azeno)-12,16-(metheno)-1,5,11,13-benzodioxadiazacyclooctadecin-8-yl]methyl}(methyl)oxido-λ^6-sulfanylidene]carbamate] | –
10 | 7.70 | 8.40 | CS(=N)(=O)Cc1cc2nc(c1)OCCCOc1cc(F)ccc1-c1cc(ncc1F)N2 (racemic) [Example 5, (rac)-15,19-Difluoro-8-[(S-methylsulfonimidoyl)methyl]-3,4-dihydro-2H,11H-10,6-(azeno)-12,16-(metheno)-1,5,11,13-benzodioxadiazacyclooctadecine] | –
11 | 7.42 | 8.30 | CS(=N)(=O)Cc1cc2nc(c1)OCCCOc1cc(F)ccc1-c1cc(ncc1F)N2 (single isomer, unassigned; enantiomer 1) [Example 6, 15,19-Difluoro-8-[(S-methylsulfonimidoyl)methyl]-3,4-dihydro-2H,11H-10,6-(azeno)-12,16-(metheno)-1,5,11,13-benzodioxadiazacyclooctadecine; Enantiomer 1] | –
12 | 7.44 | 7.68 | CCNC(=O)N=S(C)(=O)Cc1cc2nc(c1)OCCCOc1cc(F)ccc1-c1cc(ncc1F)N2 (racemic) [Example 17, (rac)-1-[{[15,19-difluoro-3,4-dihydro-2H,11H-10,6-(azeno)-12,16-(metheno)-1,5,11,13-benzodioxadiazacyclooctadecin-8-yl]methyl}(methyl)oxido-λ^6-sulfanylidene]-3-ethylurea] | –
13 | 6.89 | > 7.52 | CSCc1cc2nc(c1)OCCCOc1cc(F)ccc1-c1cc(ncc1F)N2 [Example 3, 15,19-Difluoro-8-[(methylsulfanyl)methyl]-3,4-dihydro-2H,11H-10,6-(azeno)-12,16-(metheno)-1,5,11,13-benzodioxadiazacyclooctadecine] | –

Source: patent publication US9963464B2, “Macrocyclic compounds” (Bayer Pharma Aktiengesellschaft, priority 2014, dated 2018)
